According to patent EP4800018A1, “PAN-KRAS INHIBITOR AND USE THEREOF IN MEDICINES” (Betta Pharmaceuticals Co., Ltd., priority 2023, dated 2025):
Like-named read-outs stand apart in the source and are kept apart here.

What was measured:
Assay type in all cases: cell-based
[1] = test system: KRAS-G12V mutant tumor cells SW620; test: Cell Proliferation Inhibition Assay (SW620), Cell-titer GLO, 96 h; settings: SW620 cells, 96 h incubation, Cell-titer GLO, read-out: SW620(G12V)
Summary of the method: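 SW620 cells (1×10^3/well, low-attachment) were exposed to compound from 10000 to 0.03 nM (0.5% DMSO) for 96 h at 37°C. Viability was read by Cell-titer GLO luminescence. Inhibition was calculated relative to DMSO and blank wells, and IC50 obtained by curve fitting.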

KRAS G12V-cRAF = target: T1, KRAS G12V-cRAF (Homo sapiens, UniProt P01116, G12V); test: Cellular KRAS G12V-cRAF Binding Inhibition Assay (NanoBRET, AD293 stable cells); settings: 3 h incubation, read-out: NanoBRET KRAS G12V
T1 construct: expressed in transfected cells
Summary of the method: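 Live AD293 stable cells, NanoLuc donor with HaloTag NanoBRET 618 ligand acceptor added overnight. Inhibition percent from luminescence relative to max signal and medium blank; IC50 from curve fitting.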

KRAS G12D-cRAF = target: T2, KRAS G12D-cRAF (Homo sapiens, UniProt P01116, G12D); test: Cellular KRAS G12D-cRAF Binding Inhibition Assay (NanoBRET, AD293 stable cells); settings: 3 h incubation, read-out: NanoBRET KRAS G12D
T2 construct: expressed in transfected cells
Summary of the method: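 AD293 cells stably expressing KRAS G12D-NanoLuc and cRAF RBD-HaloTag were seeded at 1×10^4 cells/well with NanoBRET 618 ligand overnight. BRET signal was converted to % inhibition of binding relative to max and blank wells, and IC50 came from curve fitting.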

[2] = test system: KRAS-G12D mutant tumor cells AGS; test: Cell Proliferation Inhibition Assay (AGS), Cell-titer GLO, 96 h; settings: AGS cells, 96 h incubation, Cell-titer GLO, read-out: AGS(G12D)
Summary of the method: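 AGS cells (KRAS-G12D) grown in low-attachment plates were exposed to compound for 96 h at 37°C. Viability was read by CellTiter-Glo luminescence and converted to % inhibition against max and blank wells. IC50 came from curve fitting.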

T2 sequence (P01116 1-188 isoform P01116-2 G12D): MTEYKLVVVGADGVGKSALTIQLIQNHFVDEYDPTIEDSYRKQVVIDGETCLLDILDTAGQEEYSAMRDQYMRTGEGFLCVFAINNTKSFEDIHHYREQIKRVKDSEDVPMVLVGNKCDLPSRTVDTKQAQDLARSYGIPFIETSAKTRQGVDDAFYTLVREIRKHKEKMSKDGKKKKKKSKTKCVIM
T1 sequence (P01116 1-188 isoform P01116-2 G12V): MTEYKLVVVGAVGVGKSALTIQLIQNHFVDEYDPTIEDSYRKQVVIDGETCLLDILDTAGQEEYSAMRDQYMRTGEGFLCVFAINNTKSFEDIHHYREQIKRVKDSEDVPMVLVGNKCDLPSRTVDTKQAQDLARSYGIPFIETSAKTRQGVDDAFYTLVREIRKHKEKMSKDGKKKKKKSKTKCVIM

| Structure (SMILES) | IC50 ([1]; Homo sapiens, SW-620, 96 h) [nM] | IC50 (KRAS G12V-cRAF) [nM] | IC50 (KRAS G12D-cRAF) [nM] | IC50 ([2]; Homo sapiens, AGS, 96 h) [nM] | IC50 [1] [nM] | IC50 [2] [nM] |
| --- | --- | --- | --- | --- | --- | --- |
| CCN1CCN(c2cnc3c(c2)-c2c4c5cc(ccc5n2CCCOC3C)-c2csc(n2)CC(NC(=O)C(C(C)C)N(C)C(=O)N2CCOCC2)C(=O)N2CCCC(N2)C(=O)OCC(C)(C)C4)CC1 [Example 149, N-((2S)-1-(((1^5S,6^3S,4S,Z)-1^2-(4-ethylpiperazin-1-yl)-1^5,10,10-trimethyl-5,7-dioxo-1^8,1^9,6^1,6^2,6^3 ,6^4,6^5,6^6-octahydro-1^5H,1^7H-8-oxa-1(13,15)-pyrido[3',2':7,8][1,5]oxazonino[5,6-a]indola-2(4,2)-thiazola-6(1,3)-pyridazinacycloundecaphane-4-yl)amino)-3-methyl-1-oxobutan-2-yl)-N-methyl morpholine-4-carboxamide] | 1.09 | 10.9 | 3.48 | 3.19 | – | – |
| CC1OCCCn2c(c3c4cc(ccc42)-c2csc(n2)CC(NC(=O)C2CC2C(F)F)C(=O)N2CCCC(N2)C(=O)OCC(C)(C)C3)-c2cc(N3CC4CCC3CN4C)cnc21 [Example 154, (1S,2S)-2-(difluoromethyl)-N-((1^5S,6^3S,4S,Z)-1^5,10,10-trimethyl-1^2-(5-methyl-2,5-diazabicyclo[2.2.2]octan-2-yl)-5,7-dioxo-1^8,1^9,6^1,6^2,6^3,6^4,6^5,6^6-octahydro-1^5H,1^7H-8-oxa-1(13,15)-pyrido[3',2 ':7,8][1,5]oxazonino[5,6-a]indola-2(4,2)-thiazola-6(1,3)-pyridazinacycloundecaphane-4-yl)cyclo propane-1-carboxamide] | 0.91 | 19.3 | 4.2 | 1.95 | – | – |
| CC1OCCCn2c(c3c4cc(ccc42)-c2csc(n2)CC(NC(=O)C2C(C)C2C)C(=O)N2CCCC(N2)C(=O)OCC(C)(C)C3)-c2cc(OCCN3CCOCC3)cnc21 [Example 158, (1r,2R,3S)-2,3-dimethyl-N-((1^5S,6^3S,4S,Z)-1^5,10,10-trimethyl-1^2-(2-morpholinoethoxy)-5,7-dioxo-1^8,1^9,6^1,6^26^3,6^4,6^5,6^6-octahydro-1^5H,1^7H-8-oxa-1(13,15)-pyrido[3',2':7,8][1,5]oxazonino[5,6-a]indola-2(4,2)-thiazola-6(1,3)-pyridazinacycloundecaphane-4-yl)cyclopropane-1-carboxamide] | 0.11 | 5.06 | 1.01 | 0.58 | – | – |
| CCN1CCN(c2cnc3c(c2)-c2c4c5cc(ccc5n2CCCOC3C)-c2csc(n2)CC(NC(=O)C2C(C)C2C)C(=O)N2CCCC(N2)C(=O)OCC(C)(C)C4)CC1 [Example 159, (1r,2R,3S)-N-((1^5S,6^3S,4S,Z)-1^2-(4-ethylpiperazin-1-yl)-1^5,10,10-trimethyl-5,7-dioxo-1^8,1^9,6^1,6^2 ,6^3,6^4,6^5,6^6-octahydro-1^5H,1^7H-8-oxa-1(13,15)-pyrido[3',2':7,8][1,5]oxazonino[5,6-a]indola-2(4, 2)-thiazola-6(1,3)-pyridazinacycloundecaphane-4-yl)-2,3-dimethylcyclopropane-1-carboxamide] | 0.06 | 3.83 | 0.38 | 0.21 | – | – |
| CCN1CCN(c2cnc3c(c2)-c2c4c5cc(ccc5n2CC(C)COC3C)-c2csc(n2)CC(NC(=O)C2CC2C(F)F)C(=O)N2CCCC(N2)C(=O)OCC(C)(C)C4)CC1 [Example 161, (1S,2S)-2-(difluoromethyl)-N-((1^5S,1^8R,6^3S,4S,Z)-1^2-(4-ethylpiperazin-1-yl)-1^5,1^8,10,10-tetramethyl-5,7-dioxo-1^8,1^9,6^1,6^2,6^3,6^4,6^5,6^6-octahydro-1^5H,1^7H-8-oxa-1(13,15)-pyrido[3',2':7,8][1,5]oxazonino[5,6-a]indola-2(4,2)-thiazola-6(1,3)-pyridazinacycloundecaphane-4-yl)cyclopropane-1-c arboxamide] | 0.24 | 4.52 | 0.92 | 0.71 | – | – |
| CC1OCCCn2c(c3c4cc(ccc42)-c2csc(n2)CC(NC(=O)C2C(C)C2C)C(=O)N2CCCC(N2)C(=O)OCC(C)(C)C3)-c2cc(N3CC(C)N(C)C(C)C3)cnc21 [Example 165, (1r,2R,3S)-2,3-dimethyl-N-((1^5S,6^3S,4S,Z)-1^5,10,10-trimethyl-5,7-dioxo-1^2-((3S,5R)-3,4,5-trimethylpiperazin-1-yl)-1^8,1^9,6^1,6^2,6^3,6^4,6^5,6^6-octahydro-1^5H,1^7H-8-oxa-1(13,15)-pyrido[3',2':7,8][1, 5]oxazonino[5,6-a]indola-2(4,2)-thiazola-6(1,3)-pyridazinacycloundecaphane-4-yl)cyclopropane-1-carboxamide] | 0.05 | 3.8 | 0.76 | 0.19 | – | – |
| CC1OCCCn2c(c3c4cc(ccc42)-c2csc(n2)CC(NC(=O)C2C(C)C2C)C(=O)N2CCCC(N2)C(=O)OCC(C)(C)C3)-c2cc(N3CC(C)N(C)C(C)C3)cnc21 [Example 171, (1r,2R,3S)-2,3-dimethyl-N-((1^5S,6^3S,4S,Z)-15,10,10-trimethyl-5,7-dioxo-1^2-((3S,5S)-3,4,5-trimethylpiperazin-1-yl)-1^8,1^9,6^1,6^2,6^3,6^4,6^5,6^6-octahydro-1^5H,1^7H-8-oxa-1(13,15)-pyrido[3',2':7,8][1, 5]oxazonino[5,6-a]indola-2(4,2)-thiazola-6(1,3)-pyridazinacycloundecaphane-4-yl)cyclopropane-1-carboxamide] | – | 3.04 | 0.24 | – | 0.04 | 0.11 |

Second part, the molecule after the results:

| IC50 ([1]; Homo sapiens, SW-620, 96 h) [nM] | IC50 (KRAS G12V-cRAF) [nM] | IC50 (KRAS G12D-cRAF) [nM] | IC50 ([2]; Homo sapiens, AGS, 96 h) [nM] | IC50 [1] [nM] | IC50 [2] [nM] | Structure (SMILES) |
| --- | --- | --- | --- | --- | --- | --- |
| 0.63 | 14.7 | 3.2 | 1.59 | – | – | CC1OCCCn2c(c3c4cc(ccc42)-c2csc(n2)CC(NC(=O)C2CC2C(F)F)C(=O)N2CCCC(N2)C(=O)OCC(C)(C)C3)-c2cc(N3CCN(C)C(C)C3)cnc21 [Example 138, (1S,2S)-2-(difluoromethyl)-N-((1^5S,6^3S,4S,Z)-1^2-((R)-3,4-dimethylpiperazin-1-yl)-1^5,10,10-trimethyl-5,7-dioxo-1^8,1^9,6^1,6^2,6^3,6^4,6^5,6^6-octahydro-1^5H,1^7H-8-oxa-1(13,15)-pyrido[3',2':7,8][1,5]oxazonino[5,6-a]indola-2(4,2)-thiazola-6(1,3)-pyridazinacycloundecaphane-4-yl)cyclopropane-1-carboxamide] |
| 0.14 | 9.3 | 1.8 | 0.38 | – | – | CC1OCCCn2c(c3c4cc(ccc42)-c2csc(n2)CC(NC(=O)C2CC2C(F)F)C(=O)N2CCCC(N2)C(=O)OCC(C)(C)C3)-c2cc(N3CC(C)N(C)C(C)C3)cnc21 [Example 140, (1S,2S)-2-(difluoromethyl)-N-((1^5S,6^3S,4S,Z)-1^5,10,10-trimethyl-5,7-dioxo-1^2-((3S,5R)-3,4,5-trimethylpiperazin-1-yl)-1^8,1^9,6^1,6^2,6^3,6^4,6^5,6^6-octahydro-1^5H,1^7H-8-oxa-1(13,15)-pyrido[3',2':7,8] [1,5]oxazonino[5,6-a]indola-2(4,2)-thiazola-6(1,3)-pyridazinacycloundecaphane-4-yl)cyclopropane-1-carboxamide] |
| – | 5.61 | 1.88 | – | 0.09 | 0.3 | CC1OCCCn2c(c3c4cc(ccc42)-c2csc(n2)CC(NC(=O)C2CC2C(F)F)C(=O)N2CCCC(N2)C(=O)OCC(C)(C)C3)-c2cc(N3CC(C)N(C)C(C)C3)cnc21 [Example 142, (1S,2S)-2-(difluoromethyl)-N-((1^5S,6^3S,4S,Z)-1^5,10,10-trimethyl-5,7-dioxo-1^2-((3S,5S)-3,4,5-trimethylpiperazin-1-yl)-1^8,1^9,6^1,6^2,6^3,6^4,6^5,6^6-octahydro-1^5H,1^7H-8-oxa-1(13,15)-pyrido[3',2':7,8] [1,5]oxazonino[5,6-a]indola-2(4,2)-thiazola-6(1,3)-pyridazinacycloundecaphane-4-yl)cyclopropane-1-carboxamide] |
| 0.6 | 8.52 | 1.97 | 1.4 | – | – | CC1OCCCn2c(c3c4cc(ccc42)-c2coc(n2)CC(NC(=O)C2CC2C(F)F)C(=O)N2CCCC(N2)C(=O)OCC(C)(C)C3)-c2cc(N3CCOCC3)cnc21 [Example 146, (1S,2S)-2-(difluoromethyl)-N-((1^5S,6^3S,4S,Z)-1^5,10,10-trimethyl-1^2-morpholino-5,7-dioxo-1^8,1^9, 6^1,6^2,6^3,6^4,6^5 6-octahydro-1^5H,1^7H-8-oxa-1(13,15)-pyrido[3',2':7,8][1,5]oxazonino[5,6-a]indola-2(4,2)-oxazola-6(1,3)-pyridazinacycloundecaphane-4-yl)cyclopropane-1-carboxamide] |
